From ChEMBL document CHEMBL1126339, “HMG-CoA reductase inhibitors 4. Tetrazole series: conformational constraints and structural requirements at the hydrophobic domain” (Bioorg Med Chem Lett, 1992)

Target: T1, 3-hydroxy-3-methylglutaryl-coenzyme A reductase (Rattus norvegicus, UniProt P51639)
T1 sequence (P51639 whole entry): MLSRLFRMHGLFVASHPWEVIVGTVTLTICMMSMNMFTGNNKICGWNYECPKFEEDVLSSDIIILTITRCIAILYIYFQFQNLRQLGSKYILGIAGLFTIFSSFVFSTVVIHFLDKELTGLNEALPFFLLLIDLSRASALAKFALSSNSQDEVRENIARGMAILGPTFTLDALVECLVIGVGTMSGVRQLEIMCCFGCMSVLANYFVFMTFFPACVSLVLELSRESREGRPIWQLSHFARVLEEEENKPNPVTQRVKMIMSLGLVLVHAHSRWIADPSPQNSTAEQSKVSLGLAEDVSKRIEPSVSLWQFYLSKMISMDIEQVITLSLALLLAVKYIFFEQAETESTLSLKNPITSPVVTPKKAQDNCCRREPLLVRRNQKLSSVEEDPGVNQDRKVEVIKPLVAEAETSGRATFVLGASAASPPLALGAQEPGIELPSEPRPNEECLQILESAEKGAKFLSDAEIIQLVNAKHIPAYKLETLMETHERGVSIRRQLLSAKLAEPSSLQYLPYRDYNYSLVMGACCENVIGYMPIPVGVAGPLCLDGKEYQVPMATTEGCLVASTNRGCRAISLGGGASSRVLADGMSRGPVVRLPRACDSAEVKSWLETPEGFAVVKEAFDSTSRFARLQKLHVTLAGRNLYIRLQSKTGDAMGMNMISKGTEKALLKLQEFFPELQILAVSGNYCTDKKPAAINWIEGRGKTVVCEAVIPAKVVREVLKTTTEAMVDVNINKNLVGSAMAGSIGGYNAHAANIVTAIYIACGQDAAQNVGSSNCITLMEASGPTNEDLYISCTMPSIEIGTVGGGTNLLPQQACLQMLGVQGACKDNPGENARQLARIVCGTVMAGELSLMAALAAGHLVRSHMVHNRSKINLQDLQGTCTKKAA
Test: Compound was tested for its inhibitory activity against rat liver microsomal HMG-CoA reductase

SMILES	IC50
Cn1nnnc1C(/C=C/C(O)CC(O)CC(=O)O)=C(c1ccc(F)cc1)c1ccc(F)cc1 (stereo unspecified)	0.043 µM
Cn1nnnc1C(/C=C/C(O)CC(O)CC(=O)O)=C1c2ccc(F)cc2-c2cc(F)ccc21 (stereo unspecified)	> 4.1 µM
O=C(O)CC(O)CC(O)/C=C/c1c(-c2ccc(F)cc2)c2ccccc2n2nnnc12 (stereo unspecified)	4.6 µM
Cn1nnnc1C(CCC(O)CC(O)CC(=O)O)Cc1ccc(F)cc1 (stereo unspecified)	> 250 µM

Second part, the compound after the results:

IC50	SMILES
210 µM	Cn1nnnc1C(=C\c1ccc(F)cc1)/C=C/C(O)CC(O)CC(=O)O (stereo unspecified)
> 250 µM	Cn1nnnc1C(/C=C/C(O)CC(O)CC(=O)O)=C/c1ccc(F)cc1 (stereo unspecified)
